Measurements taken from ChEMBL document CHEMBL4725221, “Thiazoles, Their Benzofused Systems, and Thiazolidinone Derivatives: Versatile and Promising Tools to Combat Antibiotic Resistance” (J Med Chem, 2020).
Values after ≈ are worked out from the molar mass of the structure shown. One block for each compound: values may come before it.

How the values were obtained:
Staphylococcus aureus [1] = experiment: Antibacterial activity against Staphylococcus aureus ATCC 6538 by CLSI protocol based microdilution method; format: functional, organism-based
Pseudomonas aeruginosa [2] = experiment: Antibacterial activity against Pseudomonas aeruginosa ATCC 15442 by CLSI protocol based cup-plate agar diffusion method; format: functional
Staphylococcus aureus [3] = experiment: Antibacterial activity against Staphylococcus aureus ATCC 25923 by CLSI protocol based microdilution method; format: functional, organism-based
Enterococcus faecalis [4] = experiment: Antibacterial activity against Enterococcus faecalis ATCC 19433 by NCCLS protocol based broth microdilution method
[5] = test system: Staphylococcus saprophyticus; experiment: Antibacterial activity against Staphylococcus saprophyticus; format: functional
Enterococcus faecalis [6] = experiment: Antibacterial activity against Enterococcus faecalis; format: functional
Enterococcus faecalis [7] = experiment: Antibiofilm activity against Enterococcus faecalis; format: functional
Staphylococcus aureus [8] = experiment: Antibacterial activity against Staphylococcus aureus MTCC 3160 after 24 hrs; format: functional
Escherichia coli [9] = experiment: Antibacterial activity against Escherichia coli MTCC 443 after 24 hrs; format: functional
Bacillus subtilis [10] = experiment: Antibacterial activity against Bacillus subtilis MTCC 441 after 24 hrs; format: functional
Staphylococcus aureus [11] = experiment: Antibacterial activity against Staphylococcus aureus ATCC 29213 by NCCLS protocol based broth microdilution method; format: functional
Enterococcus faecalis [12] = experiment: Antibacterial activity against Enterococcus faecalis ATCC 29212 after 20 hrs by cup plate method; format: functional
Staphylococcus aureus [13] = experiment: Antibacterial activity against Staphylococcus aureus ATCC 29213 after 20 hrs by cup plate method; format: functional
Escherichia coli [14] = experiment: Antibacterial activity against Escherichia coli ATCC 25922 after 20 hrs by cup plate method; format: functional
Bacillus subtilis [15] = experiment: Antibacterial activity against Bacillus subtilis ATCC 10400 after 20 hrs by cup plate method; format: functional
Staphylococcus aureus [16] = experiment: Antibacterial activity against methicillin resistant Staphylococcus aureus 090 by NCCLS protocol based broth microdilution method; format: functional
Staphylococcus aureus [17] = experiment: Antibacterial activity against Staphylococcus aureus MLS16; format: functional
Raoultella planticola = experiment: Antibacterial activity against Klebsiella planticola; format: functional
Pseudomonas aeruginosa [18] = experiment: Antibacterial activity against Pseudomonas aeruginosa; format: functional
Micrococcus luteus = experiment: Antibacterial activity against Micrococcus luteus; format: functional
Staphylococcus aureus [19] = experiment: Antibacterial activity against Staphylococcus aureus; format: functional
Bacillus subtilis [20] = experiment: Antibacterial activity against Bacillus subtilis; format: functional
Escherichia coli [21] = experiment: Antibacterial activity against Escherichia coli; format: functional
Klebsiella pneumoniae = experiment: Antibacterial activity against Klebsiella pneumoniae; format: functional

SMILES: NCCn1cc(-c2nc(-c3c[nH]c4ccccc34)cs2)c2cc(Br)ccc21
IC50 (Staphylococcus aureus [1]): 3.3 µg/mL (≈ 7.55 µM)
MIC (Pseudomonas aeruginosa [2]): 7.8 µg/mL (≈ 17.8 µM)
IC50 (Staphylococcus aureus [3]): 4.4 µg/mL (≈ 10.1 µM)

SMILES: Cl.Cl.Nc1ccc2sc(NC(=O)c3sc4cc(N)ccc4c3Cl)nc2c1
MIC (Enterococcus faecalis [4]): 16 µg/mL

SMILES: Cc1ccc(C2SCC(=O)N2NC(=O)CNC(=O)c2ccccc2)cc1 (stereo unspecified)
MIC (Staphylococcus aureus [8]): 12.6 µg/mL (≈ 34 µM)
MIC (Escherichia coli [9]): 12.6 µg/mL (≈ 34 µM)
MIC (Bacillus subtilis [10]): 12.6 µg/mL (≈ 34 µM)

SMILES: Nc1ccc2c(Cl)c(C(=O)Nc3nc4ccccc4s3)sc2c1
MIC (Enterococcus faecalis [4]): 8 µg/mL (≈ 22.2 µM)

SMILES: O=C(Nc1nc2ccccc2s1)c1sc2cc([N+](=O)[O-])ccc2c1Cl
MIC (Enterococcus faecalis [4]): 16 µg/mL (≈ 41 µM)

SMILES: FC(F)(F)c1ccc2nc(S)sc2c1
MIC (Staphylococcus aureus [11]): 3.12 µg/mL (≈ 13.3 µM)

SMILES: NCCn1cc(-c2nc(-c3c[nH]c4ccccc34)cs2)c2cc(F)ccc21
IC50 (Staphylococcus aureus [1]): 6.3 µg/mL (≈ 16.7 µM)
MIC (Pseudomonas aeruginosa [2]): 4.5 µg/mL (≈ 12 µM)
IC50 (Staphylococcus aureus [3]): 1.5 µg/mL (≈ 3.98 µM)

SMILES: Cl.Nc1ccc2sc(NC(=O)c3sc4ccccc4c3Cl)nc2c1
MIC (Enterococcus faecalis [4]): 8 µg/mL

SMILES: COc1ccc(-c2n[nH]c(N3C(=O)CS[C@H]3c3ccc([N+](=O)[O-])cc3)n2)cc1
MIC (Staphylococcus aureus [13]): 16 µg/mL (≈ 40.3 µM)
MIC (Escherichia coli [14]): 32 µg/mL (≈ 80.5 µM)

SMILES: O=[N+]([O-])c1ccc2nc(S)sc2c1
MIC (Staphylococcus aureus [11]): 12.5 µg/mL (≈ 58.9 µM)

SMILES: Cn1cc(-c2csc(-c3cn(CCN)c4ccc(F)cc34)n2)c2ccccc21
IC50 (Staphylococcus aureus [1]): 5.2 µg/mL (≈ 13.3 µM)
MIC (Pseudomonas aeruginosa [2]): 3.9 µg/mL (≈ 9.99 µM)
IC50 (Staphylococcus aureus [3]): 0.5 µg/mL (≈ 1.28 µM)

SMILES: O=C(CNC(=O)c1ccccc1)NN1C(=O)CSC1c1ccc(Br)cc1 (stereo unspecified)
MIC (Staphylococcus aureus [8]): 6.51 µg/mL (≈ 15 µM)
MIC (Escherichia coli [9]): 12.2 µg/mL (≈ 28 µM)
MIC (Bacillus subtilis [10]): 47.8 µg/mL (≈ 110 µM)

SMILES: O=C(CNC(=O)c1ccccc1)NN1C(=O)CSC1c1cccc([N+](=O)[O-])c1 (stereo unspecified)
MIC (Staphylococcus aureus [8]): 25.2 µg/mL (≈ 63 µM)
MIC (Escherichia coli [9]): 25.2 µg/mL (≈ 63 µM)
MIC (Bacillus subtilis [10]): 12.4 µg/mL (≈ 31 µM)

SMILES: COCCn1cc(-c2nc(-c3cn(C)c4ccccc34)cs2)c2cc(Br)ccc21
IC50 (Staphylococcus aureus [1]): 11.2 µg/mL (≈ 24 µM)
MIC (Pseudomonas aeruginosa [2]): 19.1 µg/mL (≈ 41 µM)
IC50 (Staphylococcus aureus [3]): 0.95 µg/mL (≈ 2.04 µM)

SMILES: Cc1cccc2nc(N/N=C/c3ccc(O)cc3O)sc12
MIC (Staphylococcus aureus [16]): 20 µg/mL (≈ 66.8 µM)

SMILES: Cc1cccc2nc(N/N=C/c3cc(O)c(O)c(O)c3)sc12
MIC (Staphylococcus aureus [16]): 18 µg/mL (≈ 57.1 µM)

SMILES: NCCn1cc(-c2nc(-c3c[nH]c4ccccc34)cs2)c2ccccc21
IC50 (Staphylococcus aureus [1]): 9.7 µg/mL (≈ 27.1 µM)
MIC (Pseudomonas aeruginosa [2]): 22.7 µg/mL (≈ 63.3 µM)
IC50 (Staphylococcus aureus [3]): 4.7 µg/mL (≈ 13.1 µM)

SMILES: Cl.Nc1ccc2c(Cl)c(C(=O)Nc3nc4ccccc4s3)sc2c1
MIC (Enterococcus faecalis [4]): 16 µg/mL

SMILES: COc1ccc(/C=N/Nc2nc3cccc(C)c3s2)c(OC)c1
MIC (Staphylococcus aureus [16]): 22 µg/mL (≈ 67.2 µM)

SMILES: CCN(CC)c1ccc(C2SCC(=O)N2NC(=O)CNC(=O)c2ccccc2)cc1 (stereo unspecified)
MIC (Staphylococcus aureus [8]): 12.4 µg/mL (≈ 29 µM)
MIC (Escherichia coli [9]): 3.07 µg/mL (≈ 7.2 µM)
MIC (Bacillus subtilis [10]): 12.4 µg/mL (≈ 29 µM)

SMILES: COCCn1cc(-c2nc(-c3c[nH]c4ccccc34)cs2)c2cc(Br)ccc21
IC50 (Staphylococcus aureus [1]): 9.4 µg/mL (≈ 20.8 µM)
MIC (Pseudomonas aeruginosa [2]): 4.4 µg/mL (≈ 9.73 µM)
IC50 (Staphylococcus aureus [3]): 0.79 µg/mL (≈ 1.75 µM)

SMILES: O=C(CNC(=O)c1ccccc1)NN1C(=O)CSC1c1ccccc1Cl (stereo unspecified)
MIC (Staphylococcus aureus [8]): 12.5 µg/mL (≈ 32.1 µM)
MIC (Escherichia coli [9]): 6.24 µg/mL (≈ 16 µM)
MIC (Bacillus subtilis [10]): 6.24 µg/mL (≈ 16 µM)

SMILES: O=C(N[C@H](CO)[C@H](O)c1ccc([N+](=O)[O-])cc1)C(Cl)Cl [CHLORAMPHENICOL]
MIC (Pseudomonas aeruginosa [18]): 6.25 µg/mL (≈ 19.3 µM)
MIC (Staphylococcus aureus [19]): 6.25 µg/mL (≈ 19.3 µM)
MIC (Bacillus subtilis [20]): 6.25 µg/mL (≈ 19.3 µM)
MIC (Klebsiella pneumoniae): 12.5 µg/mL (≈ 38.7 µM)

Second part, led by results:

MIC [5]: 2 µg/mL (≈ 4.64 µM)
MIC (Enterococcus faecalis [6]): 32 µg/mL (≈ 74.2 µM)
SMILES: Clc1ccc(-c2csc(-c3cccc(-c4csc(-c5ccccc5)n4)c3)n2)cc1
MBIC (Enterococcus faecalis [7]): 0.016 mg/mL

MIC [5]: 16 µg/mL (≈ 38 µM)
MIC (Enterococcus faecalis [6]): 62 µg/mL (≈ 147 µM)
SMILES: N#Cc1ccc(-c2csc(-c3cccc(-c4csc(-c5ccccc5)n4)c3)n2)cc1
MBIC (Enterococcus faecalis [7]): 0.002 mg/mL

MIC [5]: > 1000 µg/mL
MIC (Enterococcus faecalis [6]): 250 µg/mL (≈ 609 µM)
SMILES: Cc1sc(-c2cccc(-c3csc(-c4ccccc4)n3)c2)nc1-c1ccccc1
MBIC (Enterococcus faecalis [7]): 0.004 mg/mL

MIC (Enterococcus faecalis [12]): 16 µg/mL (≈ 41.4 µM)
MIC (Staphylococcus aureus [13]): 8 µg/mL (≈ 20.7 µM)
MIC (Escherichia coli [14]): 16 µg/mL (≈ 41.4 µM)
MIC (Bacillus subtilis [15]): 16 µg/mL (≈ 41.4 µM)
SMILES: COc1ccc(-c2n[nH]c(N3C(=O)CS[C@H]3c3ccc(Cl)cc3)n2)cc1

MIC [5]: 125 µg/mL (≈ 293 µM)
MIC (Enterococcus faecalis [6]): 62 µg/mL (≈ 145 µM)
SMILES: COc1ccc(-c2csc(-c3cccc(-c4csc(-c5ccccc5)n4)c3)n2)cc1
MBIC (Enterococcus faecalis [7]): 0.004 mg/mL

MIC (Staphylococcus aureus [13]): 64 µg/mL (≈ 175 µM)
MIC (Escherichia coli [14]): 32 µg/mL (≈ 87.3 µM)
SMILES: COc1ccc(-c2n[nH]c(N3C(=O)CS[C@H]3c3ccc(C)cc3)n2)cc1

MIC (Staphylococcus aureus [17]): 7.8 µg/mL (≈ 11.2 µM)
MIC (Pseudomonas aeruginosa [18]): 7.8 µg/mL (≈ 11.2 µM)
MIC (Micrococcus luteus): 7.8 µg/mL (≈ 11.2 µM)
MIC (Staphylococcus aureus [19]): 7.8 µg/mL (≈ 11.2 µM)
MIC (Bacillus subtilis [20]): 3.9 µg/mL (≈ 5.62 µM)
MIC (Escherichia coli [21]): 7.8 µg/mL (≈ 11.2 µM)
SMILES: O=c1oc2c(Br)cccc2cc1-c1csc(N/N=C/c2cn(-c3nc4ccccc4s3)nc2-c2cc3ccccc3oc2=O)n1
MIC (Raoultella planticola): 7.8 µg/mL (≈ 11.2 µM)

MIC [5]: 32 µg/mL (≈ 80.7 µM)
MIC (Enterococcus faecalis [6]): 125 µg/mL (≈ 315 µM)
SMILES: c1ccc(-c2csc(-c3cccc(-c4csc(-c5ccccc5)n4)c3)n2)cc1
MBIC (Enterococcus faecalis [7]): 0.002 mg/mL

MIC (Pseudomonas aeruginosa [18]): 25 µg/mL (≈ 55 µM)
MIC (Staphylococcus aureus [19]): 50 µg/mL (≈ 110 µM)
MIC (Bacillus subtilis [20]): 50 µg/mL (≈ 110 µM)
MIC (Klebsiella pneumoniae): 25 µg/mL (≈ 55 µM)
SMILES: Fc1ccc(-c2csc(-n3nc(-c4ccc(F)cc4)cc3-c3cc4ccccc4[nH]3)n2)cc1

MIC (Staphylococcus aureus [13]): 128 µg/mL (≈ 346 µM)
MIC (Escherichia coli [14]): 64 µg/mL (≈ 173 µM)
SMILES: COc1ccc(-c2n[nH]c(N3C(=O)CS[C@H]3c3ccc(F)cc3)n2)cc1

MIC (Staphylococcus aureus [17]): 7.8 µg/mL (≈ 13.5 µM)
MIC (Pseudomonas aeruginosa [18]): 7.8 µg/mL (≈ 13.5 µM)
MIC (Micrococcus luteus): 7.8 µg/mL (≈ 13.5 µM)
MIC (Staphylococcus aureus [19]): 7.8 µg/mL (≈ 13.5 µM)
MIC (Bacillus subtilis [20]): 7.8 µg/mL (≈ 13.5 µM)
MIC (Escherichia coli [21]): 7.8 µg/mL (≈ 13.5 µM)
SMILES: COc1ccc(-c2csc(N/N=C/c3cn(-c4nc5ccccc5s4)nc3-c3cc4ccccc4oc3=O)n2)cc1
MIC (Raoultella planticola): 7.8 µg/mL (≈ 13.5 µM)

MIC (Staphylococcus aureus [13]): 128 µg/mL (≈ 335 µM)
MIC (Escherichia coli [14]): 6 µg/mL (≈ 15.7 µM)
SMILES: COc1ccc(-c2n[nH]c(N3C(=O)CS[C@H]3c3ccc(OC)cc3)n2)cc1

MIC [5]: 32 µg/mL (≈ 72.5 µM)
MIC (Enterococcus faecalis [6]): 62 µg/mL (≈ 140 µM)
SMILES: O=[N+]([O-])c1ccc(-c2csc(-c3cccc(-c4csc(-c5ccccc5)n4)c3)n2)cc1
MBIC (Enterococcus faecalis [7]): 0.002 mg/mL

MIC (Pseudomonas aeruginosa [18]): 6.25 µg/mL (≈ 13 µM)
MIC (Staphylococcus aureus [19]): 25 µg/mL (≈ 51.9 µM)
MIC (Bacillus subtilis [20]): 25 µg/mL (≈ 51.9 µM)
MIC (Klebsiella pneumoniae): 12.5 µg/mL (≈ 26 µM)
SMILES: O=[N+]([O-])c1ccc(-c2cc(-c3cc4ccccc4[nH]3)n(-c3nc(-c4ccc(F)cc4)cs3)n2)cc1

MIC (Staphylococcus aureus [17]): 7.8 µg/mL (≈ 12.5 µM)
MIC (Pseudomonas aeruginosa [18]): > 125 µg/mL
MIC (Micrococcus luteus): 7.8 µg/mL (≈ 12.5 µM)
MIC (Staphylococcus aureus [19]): 7.8 µg/mL (≈ 12.5 µM)
MIC (Bacillus subtilis [20]): 3.9 µg/mL (≈ 6.23 µM)
MIC (Escherichia coli [21]): 7.8 µg/mL (≈ 12.5 µM)
SMILES: O=c1oc2ccccc2cc1-c1nn(-c2nc3ccccc3s2)cc1/C=N/Nc1nc(-c2ccc(Br)cc2)cs1
MIC (Raoultella planticola): 7.8 µg/mL (≈ 12.5 µM)
